“Also recorded” adds a separate entry of the source. Where a name gives a salt, the structure may show the parent alone.
Experiments:
[1] = Thermodynamic stability of crystal forms at room temperature; type: physicochemical
Excerpt: This is indicative of the greater stability of the Form-III crystal form.

[2] = Heat stability of Form-III crystal form (XRPD after heating); type: physicochemical; conditions: for Polymorph form detected after heating: 6 hours, XRPD
Excerpt: Pure Form-III crystal form (1 gm) prepared by the present process was placed in a boiling tube and heated gradually in oil bath. Then the substance was examined by XRPD.

[3] = Stability of Form-III crystal form under accelerated stress conditions in bulk and formulated capsule; type: physicochemical
K562 cells [4] = assay: Spleenic enlargement and spleen Crk immunocytochemistry in K562 implanted nude mice; type: in vivo; conditions: ip injections
Description: Control mice were sacrificed on day 42 when secondary leukemia symptoms were observed, such as abdominal swelling and lack of circulation in the peripherals causing loss of digits with red spots under the skin surface. Spleen and any secondary tumors were harvested, fixed in formaldehyde and paraffin embedded as per standard protocols. Paraffin section were obtained and processed for immunocytochemistry. The rehydrated sections were treated with 0.3% H2O2 to inactivate any native peroxidases prior to immuno-probing. The sections were blocked with filter sterilized (0.22 μm) 1% BSA-PBS at room temperature for 1 h. Following blocking, the sections were immuno-probed with a human specific anti-Crk monoclonal primary antibody raised in rabbit against a synthetic peptide corresponding to residues in the SH2 domain, near the N-term of human CrkL protein (Abcam, Cambridge, Mass., USA) in 1% BSA-PBS overnight. Secondary antibody (anti-rabbit) conjugated to HRP was used to detect the presence of primary antibody. The sections were briefly rinsed three times in PBS solution after immuno-probing with secondary antibody, and DAB HRP substrate was added per manufacture's instructions (Sigma St Louis Mo. USA). The reaction was allowed to proceed until sharp contrast between positive and negative controls was observed. For negative controls primary antibody were eliminated. Leukemic mice spleen served as positive controls.
Mice were sacrificed after a decrease in LGI was observed and spleen harvested. […] Control mice also developed random subcutaneous tumors showing Crk expression, indicative of the presence of K562 cells.

K562 cells [5] = assay: Anti-CML activity in nude mice implanted with K562 cells (leukemia growth index); type: in vivo; conditions: ip injections
Excerpt: Nude mice (nu/nu) were implanted with K562 cells (1×10^6) via tail vein.
Blood was drawn via the tail vein. Quantitative analysis of LGI was graphically represented.

[6] = test system: K562 luciferase expressing cells; assay: Leukemic survival study in nude mice implanted with K562 luciferase expressing cells; type: in vivo
Excerpt: K562 luciferase expressing cells were implanted intraperitoneally into nude mice; the mice were scanned using the xenogeny IVIS image station after ip injections of luciferin does determine implantations. Drug treatment was started as in previous studies day 15 after implantation. The animals were given treatment till day 42, after which drug treatment was stopped and survival of the animals determined as per the animal care regulations. […] Drug treatment was withdrawn on day 42 post implantation and survival of animals determined.

U87 glioma cells = assay: Matrigel invasion assay (modified Boyden chamber), U87; type: cell-based
Description: (§1) The in vitro invasiveness of 4910, 5310 and U87 glioma cells and MDAMB231 and ZR71 breast cancer cells in the presence of specified concentrations of compounds were assessed using a modified Boyden chamber assay. Cells were treated with these compounds for 48 h. 1×10^6 cells were suspended in 600 μl of serum-free medium supplemented with 0.2% BSA and placed in the upper compartment of the transwell chambers (Corning Costar Fischer Scientific Cat #07-200-158, Pittsburgh Pa.) coated with Matrigel (0.7 mg/ml). The lower compartment of the chamber was filled with 200 μl of serum medium and the cells were allowed to migrate for 24 h. After incubation, the cells were fixed and stained with Hema-3 and quantified as previously described (Mohanam et al. 1993). The migrated cells were imaged microscopically to determine the reduction in invasiveness induced by the compounds of this invention.

4910 glioma cells = assay: Matrigel invasion assay (modified Boyden chamber), 4910; type: cell-based, human
Description: as §1

ZR71 breast cancer cells = assay: Matrigel invasion assay (modified Boyden chamber), ZR-71; type: cell-based
Description: as §1

[7] = test system: 4910 human glioma xenograft cells; assay: Glioma radiation study, nude mice intracranially implanted with 4910 cells; type: in vivo; conditions: of 10 animals; without radiation; day 40 post implantation
Description: Nude mice were intracranially implanted with 4910 human glioma xenograft cells (1×10^6 cells). Ten days after implantation mice were treated with AN019, AN024 or temozolomide with or without radiation (5 Gy/week). The experiment was terminated at day 40 post implantation.

5310 glioma cells = assay: Matrigel invasion assay (modified Boyden chamber), 5310; type: cell-based
Description: as §1

[8] = test system: MDAMB231 breast cancer cells; assay: Matrigel invasion assay (modified Boyden chamber), MDA-MB-231; type: cell-based
Description: as §1

[9] = drug treatment withdrawn on day 42

Cc1ccc(NC(=O)c2cc(C(F)(F)F)cc(C(F)(F)F)c2)cc1Nc1nccc(-c2cccnc2)n1 [Form-I, (3,5-bis trifluoromethyl)-N-[4-methyl-3-(4-pyridin-3yl-pyrimidin-2ylamino)-phenyl]-benzamide]
Stability of crystal form [1]: metastable

Cc1ccc(NC(=O)c2cc(C(F)(F)F)cc(C(F)(F)F)c2)cc1Nc1nccc(-c2cccnc2)n1 [Form-II, (3,5-bis trifluoromethyl)-N-[4-methyl-3-(4-pyridin-3yl-pyrimidin-2ylamino)-phenyl]-benzamide]
Stability of crystal form [1]: metastable

Cc1ccc(NC(=O)c2cc(C(F)(F)F)cc(C(F)(F)F)c2)cc1Nc1nccc(-c2cccnc2)n1 [Form-III, (3,5-bis trifluoromethyl)-N-[4-methyl-3-(4-pyridin-3yl-pyrimidin-2ylamino)-phenyl]-benzamide]
Polymorph form detected after heating ([2]; 110° C.): Form-III
Polymorph form detected after heating ([2]; 120° C.): Form-III
Polymorph form detected after heating ([2]; 130° C.): Form-III
Heat stability ([2]; heated at 130° C. for 6 hours): non-metastable and stable; also recorded: stable to heat
Stability of crystal form [1]: thermodynamically stable
Polymorph content of bulk compound of formula I, polymorph form detected ([3]; 0 Month at 40 ± 2° C./75 ± 5% RH): Form-III
Polymorph content of bulk compound of formula I, polymorph form detected ([3]; 1 Month at 40 ± 2° C./75 ± 5% RH): Form-III
Polymorph content of bulk compound of formula I, polymorph form detected ([3]; 2 Months at 40 ± 2° C./75 ± 5% RH): Form-III
Polymorph content of bulk compound of formula I, polymorph form detected ([3]; 3 Months at 40 ± 2° C./75 ± 5% RH): Form-III
Polymorph content of bulk compound of formula I, polymorph form detected ([3]; 6 Months at 40 ± 2° C./75 ± 5% RH): Form-III

Cc1ccc(NC(=O)c2ccc(CN3CCN(C)CC3)cc2)cc1Nc1nccc(-c2cccnc2)n1 [Imatinib, Imatinib mesylate, reference compound]
Crk expression in spleen (immunohistochemistry) (K562 cells [4]): few colonies with low to undetectable expression levels of Crk; also recorded: localized expression regions of Crk expression
Spleenic enlargement (gross observation) (K562 cells [4]): slight spleenic enlargement
Physiological, phenotypic or behavioral abnormality (K562 cells [5]): no abnormal physiological, phenotypic or behavioral abnormality
Blast cell count from blood smears, effectiveness after withdrawal of drug treatment [6, 9]: ineffective
Leukemic symptoms after treatment withdrawal [6, 9]: reoccurrences of leukemic symptoms
Mortality ([6]; treatment day 15 to day 42, then withdrawn, 10 animals): mortality on day 55, 56, 57 and 58

Cn1nnc2c(C(N)=O)ncn2c1=O [Temozolomide]
±Change in invasion after radiation (U87 glioma cells; U87): +3%
+Radiation % Invasion (U87 glioma cells; U87, with radiation, 48 h treatment): 93%
−Radiation % Invasion (U87 glioma cells; U87, without radiation, 48 h treatment): 90%
±Change in invasion after radiation (4910 glioma cells; 4910): −22%
+Radiation % Invasion (4910 glioma cells; 4910, with radiation, 48 h treatment): 73%
−Radiation % Invasion (4910 glioma cells; 4910, without radiation, 48 h treatment): 95%
±Change in invasion after radiation (ZR71 breast cancer cells; ZR-71): −5%
+Radiation % Invasion (ZR71 breast cancer cells; ZR-71, with radiation, 48 h treatment): 65%
−Radiation % Invasion (ZR71 breast cancer cells; ZR-71, without radiation, 48 h treatment): 70%
Animals cured / complete absence of intracranial tumours [7]: 3 animals
±Change in invasion after radiation (5310 glioma cells; 5310): +13%
+Radiation % Invasion (5310 glioma cells; 5310, with radiation, 48 h treatment): 63%
−Radiation % Invasion (5310 glioma cells; 5310, without radiation, 48 h treatment): 50%
±Change in invasion after radiation ([8]; MDA-MB-231): −13%
+Radiation % Invasion ([8]; MDA-MB-231, with radiation, 48 h treatment): 49%
−Radiation % Invasion ([8]; MDA-MB-231, without radiation, 48 h treatment): 62%
